Values of other authors as cited in patent US12201674B2 (EDIX SA, priority 2018, dated 2025).

Assays:
[1] = biological target: SSTR 3 (Homo sapiens, UniProt P32745)
[2] = biological target: human somatostatin receptors (SSTR) 2 (Homo sapiens, UniProt P30874)
[3] = biological target: SSTR 4 (Homo sapiens, UniProt P31391)
[4] = biological target: SSTR 1 (Homo sapiens, UniProt P30872)
Chain of SSTR 1 (P30872 whole entry): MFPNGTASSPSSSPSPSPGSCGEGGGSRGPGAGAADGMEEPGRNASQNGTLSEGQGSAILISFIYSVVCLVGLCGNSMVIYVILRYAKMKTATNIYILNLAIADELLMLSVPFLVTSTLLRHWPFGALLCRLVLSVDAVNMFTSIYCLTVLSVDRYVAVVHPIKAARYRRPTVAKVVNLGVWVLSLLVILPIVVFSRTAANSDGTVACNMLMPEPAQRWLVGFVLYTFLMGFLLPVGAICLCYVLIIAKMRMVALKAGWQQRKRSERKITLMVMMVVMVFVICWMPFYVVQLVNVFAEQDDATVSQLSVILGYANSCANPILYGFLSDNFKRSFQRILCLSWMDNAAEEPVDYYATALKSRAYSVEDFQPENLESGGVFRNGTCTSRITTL

Chain of human somatostatin receptors (SSTR) 2 (P30874 whole entry): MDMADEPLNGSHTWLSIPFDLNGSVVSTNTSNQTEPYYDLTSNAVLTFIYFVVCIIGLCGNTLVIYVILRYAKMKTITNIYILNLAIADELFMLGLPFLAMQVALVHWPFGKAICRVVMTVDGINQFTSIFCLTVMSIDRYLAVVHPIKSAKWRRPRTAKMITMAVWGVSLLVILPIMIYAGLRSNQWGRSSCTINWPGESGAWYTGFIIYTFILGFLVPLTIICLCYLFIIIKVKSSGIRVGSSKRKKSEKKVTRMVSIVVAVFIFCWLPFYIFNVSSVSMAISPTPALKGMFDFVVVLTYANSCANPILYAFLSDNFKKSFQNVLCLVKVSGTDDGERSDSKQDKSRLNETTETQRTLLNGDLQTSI
Chain of SSTR 3 (P32745 whole entry): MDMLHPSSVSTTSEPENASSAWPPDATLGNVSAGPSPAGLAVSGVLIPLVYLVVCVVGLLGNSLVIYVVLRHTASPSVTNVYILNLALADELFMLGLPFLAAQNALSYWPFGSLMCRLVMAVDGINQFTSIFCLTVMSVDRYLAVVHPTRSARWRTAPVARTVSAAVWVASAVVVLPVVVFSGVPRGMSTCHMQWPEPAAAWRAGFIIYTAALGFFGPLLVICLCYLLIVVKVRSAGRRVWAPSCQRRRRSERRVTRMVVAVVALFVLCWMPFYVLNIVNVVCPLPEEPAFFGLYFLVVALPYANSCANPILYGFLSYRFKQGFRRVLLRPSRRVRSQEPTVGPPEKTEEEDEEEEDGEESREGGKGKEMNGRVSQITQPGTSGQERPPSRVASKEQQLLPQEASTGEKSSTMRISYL
Chain of SSTR 4 (P31391 whole entry): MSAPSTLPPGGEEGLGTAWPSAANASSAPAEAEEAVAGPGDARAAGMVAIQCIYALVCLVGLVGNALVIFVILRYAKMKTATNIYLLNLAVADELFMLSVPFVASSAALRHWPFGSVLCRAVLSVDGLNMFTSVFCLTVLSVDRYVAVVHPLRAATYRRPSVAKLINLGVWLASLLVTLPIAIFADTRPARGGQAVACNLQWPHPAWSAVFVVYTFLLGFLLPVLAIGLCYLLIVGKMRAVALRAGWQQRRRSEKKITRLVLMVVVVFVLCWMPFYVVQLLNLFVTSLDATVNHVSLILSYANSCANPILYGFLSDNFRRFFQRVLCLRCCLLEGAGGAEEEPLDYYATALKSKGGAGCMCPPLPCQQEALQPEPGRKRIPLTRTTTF

In the case of CC(C)[C@@H]1NC(=O)[C@H](CCCCN)NC(=O)[C@@H](Cc2c[nH]c3ccccc23)NC(=O)[C@H](Cc2ccc(O)cc2)NC(=O)[C@@H](NC(=O)[C@H](N)Cc2ccc3ccccc3c2)CSSC[C@@H](C(=O)N[C@H](C(N)=O)[C@@H](C)O)NC1=O [lanreotide], the affinity [1] is listed as “low affinity”, the affinity [2] is listed as “high affinity” and the affinity [3] is listed as “low affinity”. The affinity [4] was “low affinity”.
